Assay results published in patent US20250213614A1, “Modified RELA Protein for Inducing Interferon Expression and Engineered Immune Cells with Improved Interferon Expression” (Institut Curie, priority 2022, published 2025).

Key:
Format in all cases: cell-based, human
CD4+ T cells = experiment: IFN-I/III quantification (LEGENDplex) in CD4+ T cells, baseline or after STING stimulation; conditions: for IFN-I/III: over-expression of cGAS or NLS-cGAS in CD4+ T cells, data not shown
Experimental: (§1) Plasmapheresis blood pockets were obtained from healthy adult volunteers after informed consent from the EFS (Establishment of French blood collection). Peripheral blood mononuclear cells (PBMCs) were isolated using Ficoll-Paque Plus (GE-17144003) and left overnight at 4° C. in RPMI (Thermo fischer #61870-010) with 10% heat-decomplemented fetal bovine serum (FBS, Eurobio #CVFSVFO0-01). CD14+ cells were enriched by positive selection (Miltenyi #130-050-201), the CD14 negative fraction was subsequently used to isolate total CD4+ T cells by negative selection (Stem Cell #17952). CD14+ cells were cultured in RPMI containing 10% FBS, 5% Penicillin-Streptomycin (PS, Thermo Fisher #10378-016), 50 μg/ml Gentamicin (Thermo Fisher #15750-045) and 10 mM HEPES (Thermo Fisher #15630-056). CD14+ cells were differentiated ex vivo into MDDC by supplementing the culture media with 50 ng/ml IL-4 (Miltenyi #130-093-922) and 10 ng/ml GM-CSF (Miltenyi #130-093-867). MDDC were used for experiments 3 or 4 days following the start of the culture. CD14+ cells were differentiated ex vivo into macrophages by adding 50 ng/ml MCSF (Miltenyi #130-096-492) to the culture media containing RPMI with 1% PS, 5% FBS and 5% human serum (Sigma #H4522). MDM were used 7 days following culture. Freshly isolated CD4+ T cells were cultured in X-VIVO 15 (Lonza #BE02-060F) and activated using anti-CD3 and anti-CD28 Dynabeads (fisher scientific #10548353) at the ratio of 1:5 (bead:cell). 100 U/ml human IL-2 (Immunotools #11340027) was added to cultures 2 days following TCR stimulation and media with IL-2 was replenished every 48 hours. To assess proliferation, freshly isolated CD4+ T cells were stained with cell proliferation dye (thermo fischer #65-0840-85) prior to TCR stimulation.
(§2) CD14+ cells were plated at 1 million cells/ml and transduced with equal volumes of freshly harvested SIV-VLPs and pTRIP-SFFV vectors in the presence of 8 μg/ml protamine (Sigma #P4020). CD4+ T cells were transduced with lentivectors 24 hours post-TCR stimulation in 100 μl of cells (0.2 million cells) and 100 μl of freshly harvested lentivirus in the presence of 8 μg/ml protamine. T cells were spinoculated at 1200 g for 2 hours at 25° C. 0.5 million THP-1 cells in 500 μl media (RPMI 10% FBS 1% PS) were transduced with 500 μl freshly harvested lentivirus in the presence of 8 μg/ml protamine. 1 μg/ml Puromycin (Invivogen #ant-pr-1) was added 2 days post-transduction when cells were transduced with pLKO.1-puro plasmid.
For stimulation of STING by extracellular ligands, 2.5 μg of ADUS100 (invivogen #tlrl-nacda2r-01) or 2′3′-cGAMP (cGAMP, invivogen #tlrl-nacga23-02) was added to 100,000 cells in 100 μl media either on freshly isolated primary cells or 3-4 days post differentiation for MDDC and 3 days post-TCR stimulation for CD4+ T cells. Cells and supernatant were harvested 18-24 hours post stimulation. For delivery of STING ligands after permeabilization, T cells were used 3 or 4 days post TCR stimulation and MDDC were used 3-4 days following differentiation. 150,000 cells were plated in round bottom 96-well plate. Media was removed by centrifugation and 20 μl 2× permeabilization buffer (100 mM HEPES, 200 mM KCl, 6 mM MgCl2, 0.2 mM DTT, 170 mM Sucrose, 2 mM ATP, 2 mM GTP, 0.4% bovine serum albumin (BSA), 20 μg/ml digitonin) and 20 μl cGAMP (12 μg/ml) was added to cells. 18 to 20 hours following stimulation supernatants and cells were harvested. Cells were stained with a fixable viability dye (Invitrogen #65-0865-14) and acquired on a FACSVerse (BD). […]
Where indicated, cells were treated with 5-Azacytidine (5AZA, Sigma #A2385) 48 hours prior to cGAMP stimulation. Fresh 5AZA was added daily to cells, and media was replenished with 5AZA following cGAMP stimulation. 100 nM Trichostatin A (TSA) (sigma #T1952) was added to cells following cGAMP stimulation and left overnight. […]

[1] = system: STING, TBK1, IRF3, RELA, IRF7; experiment: Western blot of key signaling proteins involved in STING signaling; conditions: CD4+ T cells treated with TSA or 5AZA, FIG. 3E
Experimental: 0.5 million cells were lysed for 30 minutes on ice in 50 μl RIPA buffer (50 mM Tris HCl, 150 mM NaCl, 0.1% SDS, 0.5% DOC, 1% NP-40) with Protease inhibitor (Roche #1187358001). To evaluate, phospho-proteins 50 mM NaF and 1 mM sodium orthovanadate were added to the lysis buffer. Protein lysates were cleared by centrifugation at 12,000 g for 10 to 12 minutes at 4° C. 10 μl of 6× Laemmli buffer (fisher scientific #J61337) was added to 50 μl protein lysates and samples were boiled at 95° C. for 15 minutes. Protein samples were resolved on 4%-20% Biorad precast SDS-PAGE gels (#5671125) and transferred onto PVDF membranes (BioRad #1704157). Membranes were blocked in 5% non-fat dry milk in PBS 0.1% tween or in TBS 5% BSA 0.1% Tween to detect phosphorylated proteins. Primary antibodies were used at 1:1000:phospho-STING (clone-D7C3S), STING (clone-D2P2F), serine 172 phospho-TBK1 (clone-D52C2), TBK1 (clone-D11B4), serine 396 phospho IRF3 (clone-D6O1M), IRF3 (clone-D83B9), RELA (clone-C22B4), IRF7 (clone-12G9A36), cGAS (clone-D1 D3G), Actin (clone-C4), Sendai viral proteins (Biozol #MBL-PD029). Secondary anti-rabbit or anti-mouse antibody were used at 1:10,000 (santa cruz #sc-2357, #sc-516102). ECL signal (Biorad #1705061 and #1705062) was recorded on a ChemiDoc Touch Biorad Imager. Data was analyzed and quantified with Image Lab software (Biorad). In figures, dotted lines indicate reordering of lanes from a single original membrane for visualization purpose.

MDDC = experiment: IFN-I/III quantification (LEGENDplex) in MDDC after STING stimulation
Experimental: as §1, §2
For stimulation of STING by extracellular ligands, 2.5 μg of ADUS100 (invivogen #tlrl-nacda2r-01) or 2′3′-cGAMP (cGAMP, invivogen #tlrl-nacga23-02) was added to 100,000 cells in 100 μl media either on freshly isolated primary cells or 3-4 days post differentiation for MDDC and 3 days post-TCR stimulation for CD4+ T cells. Cells and supernatant were harvested 18-24 hours post stimulation. For delivery of STING ligands after permeabilization, T cells were used 3 or 4 days post TCR stimulation and MDDC were used 3-4 days following differentiation. 150,000 cells were plated in round bottom 96-well plate. Media was removed by centrifugation and 20 μl 2× permeabilization buffer (100 mM HEPES, 200 mM KCl, 6 mM MgCl2, 0.2 mM DTT, 170 mM Sucrose, 2 mM ATP, 2 mM GTP, 0.4% bovine serum albumin (BSA), 20 μg/ml digitonin) and 20 μl cGAMP (12 μg/ml) was added to cells. 18 to 20 hours following stimulation supernatants and cells were harvested. Cells were stained with a fixable viability dye (Invitrogen #65-0865-14) and acquired on a FACSVerse (BD).
For experiments with conditioned media, CD4+ T cell- and MDDC-conditioned media refer to […] filtered conditioned media from cultures of activated CD4+ T cell and MDDC, respectively. CD4+ T cells were pretreated with 100 μl of MDDC-conditioned media or of fresh MDDC culture media, 24 hours prior to cGAMP stimulation. […]

[2] = TCR-activated CD4+ T cells, ADU-S100 2.5 μg, FIG. 1D

Molecule: Nc1ncn([C@@H]2O[C@H](CO)[C@@H](O)[C@H]2O)c(=O)n1 [5AZA, 5-Azacytidine, reference compound]
- IFNλ1 response to cGAMP under epigenetic inhibitor (CD4+ T cells; CD4+ T cells, TSA 100 nM or 5AZA 2 μM, FIG. 3D): enhanced the IFNλ1 response to cGAMP
- cGAMP-mediated STING signaling [1]: did not occur through detectable increase

Molecule: Nc1ncnc2c1ncn2[C@@H]1O[C@@H]2COP(=O)([S-])O[C@@H]3[C@H](O)[C@@H](COP([O-])(=S)O[C@H]2[C@H]1O)O[C@H]3n1cnc2c(N)ncnc21.[Na+].[Na+] (stereo partly shown) [ADU-S100, reference compound]
- IFN-I induction (CD4+ T cells; [2]): no detectable IFN-I
- IFN-III induction (CD4+ T cells; [2]): induced IFN-III
- IFN response to STING ligands (CD4+ T cells; resting blood CD4+ T cells, soluble ligand 1 μg or 2.5 μg, FIG. 1B): undetectable
- IFNλ1 produced by donor-matched MDDC, more than TCR-activated CD4+ T cells (MDDC; ADU-S100 2.5 μg, FIG. 1D): 10 fold
- IFNβ production (MDDC; donor-matched MDDC, ADU-S100 2.5 μg, FIG. 1D): high levels

Molecule: IFNγ: recombinant type II interferon, 10 ng/ml
- IFN-I/III response to cGAMP (MDDC; MDDC treated with recombinant IFNγ 10 ng/ml 24 hours before cGAMP, FIG. 1H): sufficient to enhance

B1: RELA K310R: RELA with lysine 310 substituted for arginine, expressed from lentivector (protein)
chain: MDELFPLIFPAEPAQASGPYVEIIEQPKQRGMRFRYKCEGRSAGSIPGERSTDTTKTHPTIKINGYTGPGTVRISLVTKDPPHRPHPHELVGKDCRDGFYEAELCPDRCIHSFQNLGIQCVRRRDLEQAISQRIQTNNNPFQVPIEEQRGDYDLNAVRLCFQVTVRDPSGRPLRLPPVLSHPIFDNRAPNTAELKICRVNRNSGSCLGGDEIFLLCDKVQKEDIEVYFTGPGWEARGSFSQADVHRQVAIVFRTPPYADPSLQAPVRVSMQLRRPSDRELSEPMEFQYLPDTDDRHRIEEKRKRTYETFRSIMRRSPFSGPTDPRPPPRRIAVPSRSSASVPKPAPQPYPFTSSLSTINYDEFPTMVFPSGQISQASALAPAPPQVLPQAPAPAPAPAMVSALAQAPAPVPVLAPGPPQAVAPPAPKPTQAGEGTLSEALLQLQFDDEDLGALLGNSTDPAVFTDLASVDNSEFQQLLNQGIPVAPHTTEPMLMEYPEAITRLVTGAQRPPDPAPAPLGAPGLPNGLLSGDEDFSSIADMDFSALLSQISS
- IFNλ1 after cGAMP stimulation (CD4+ T cells; lentivector overexpression in CD4+ T cells, FIG. 2B, 2D, 2F): augmented in the presence of cGAMP
- IFNα2 in response to cGAMP (CD4+ T cells; lentivector overexpression in CD4+ T cells, FIG. 2D, 2F): detected
- baseline IFNλ1 expression (CD4+ T cells; lentivector overexpression in CD4+ T cells, no cGAMP, FIG. 2D, 2F): increased baseline IFNλ1 similar to RELA K5R

B2: cGAS: pTRIP-SFFV-EGFP-FLAG-cGAS over-expression (protein, UniProt Q8N884 1-522, looked up)
Cyclic GMP-AMP synthase: MQPWHGKAMQRASEAGATAPKASARNARGAPMDPTESPAAPEAALPKAGKFGPARKSGSRQKKSAPDTQERPPVRATGARAKKAPQRAQDTQPSDATSAPGAEGLEPPAAREPALSRAGSCRQRGARCSTKPRPPPGPWDVPSPGLPVSAPILVRRDAAPGASKLRAVLEKLKLSRDDISTAAGMVKGVVDHLLLRLKCDSAFRGVGLLNTGSYYEHVKISAPNEFDVMFKLEVPRIQLEEYSNTRAYYFVKFKRNPKENPLSQFLEGEILSASKMLSKFRKIIKEEINDIKDTDVIMKRKRGGSPAVTLLISEKISVDITLALESKSSWPASTQEGLRIQNWLSAKVRKQLRLKPFYLVPKHAKEGNGFQEETWRLSFSHIEKEILNNHGKSKTCCENKEEKCCRKDCLKLMKYLLEQLKERFKDKKHLDKFSSYHVKTAFFHVCTQNPQDSQWDRKDLGLCFDNCVTYFLQCLRTEKLENYFIPEFNLFSSNLIDKRSKEFLTKQIEYERNNEFPVFDEF
modifications: EGFP, FLAG tag
notes: pTRIP-SFFV-EGFP-FLAG-cGAS over-expression
- IFN-I/III (CD4+ T cells): remained undetectable

B3: NLS-cGAS: pTRIP-SFFV-EGFP-NLS-FLAG-cGAS, nuclear localization signal cGAS over-expression (protein, UniProt Q8N884 1-522, looked up)
Cyclic GMP-AMP synthase: MQPWHGKAMQRASEAGATAPKASARNARGAPMDPTESPAAPEAALPKAGKFGPARKSGSRQKKSAPDTQERPPVRATGARAKKAPQRAQDTQPSDATSAPGAEGLEPPAAREPALSRAGSCRQRGARCSTKPRPPPGPWDVPSPGLPVSAPILVRRDAAPGASKLRAVLEKLKLSRDDISTAAGMVKGVVDHLLLRLKCDSAFRGVGLLNTGSYYEHVKISAPNEFDVMFKLEVPRIQLEEYSNTRAYYFVKFKRNPKENPLSQFLEGEILSASKMLSKFRKIIKEEINDIKDTDVIMKRKRGGSPAVTLLISEKISVDITLALESKSSWPASTQEGLRIQNWLSAKVRKQLRLKPFYLVPKHAKEGNGFQEETWRLSFSHIEKEILNNHGKSKTCCENKEEKCCRKDCLKLMKYLLEQLKERFKDKKHLDKFSSYHVKTAFFHVCTQNPQDSQWDRKDLGLCFDNCVTYFLQCLRTEKLENYFIPEFNLFSSNLIDKRSKEFLTKQIEYERNNEFPVFDEF
modifications: EGFP, NLS, FLAG tag
notes: pTRIP-SFFV-EGFP-NLS-FLAG-cGAS, nuclear localization signal cGAS over-expression
- IFN-I/III (CD4+ T cells): remained undetectable
